Here are results for four compounds from patent publication US8536171B2, “Method for obtaining 5-amino 2,3-dihydrophthalazine-1,4-dione alkali metal salts and their use in medicine” (Abidopharma PL SP. Z.O.O., priority 2009, dated 2013).

The subject of data set [1] is rats with STZ diabetes. The data set is described as follows: Rats with diabetes induced by streptozotocin (STZ). In kind it is in vivo. Conditions: for glycemia / level of malonic dialdehyde (MDA), oxidation stress marker: in comparison to the group of the STZ untreated rats.
The test system of data set [2] is rats with experimentally developed muscles ischemia.
For data set [3], the system named is patients with inflammatory diseases of head, maxillofacial area and neck. Conditions: above 50 patients, various forms and doses.
The test system of data set [4] is patients with acute and chronic pancreatitis.
The test system of data set [5] is rats with alloxan diabetes. An excerpt: The results were presented below in Table 2.
The results of the trials were presented below in Table 3.

Data set [6] deals with rats with experimental myocardial infarction. As for the experimental part: (§1) The animals of 230 to 258 g were subjected to ether narcosis for 1-3 minutes, Next, by the thoracotomy method there was achieved access to the anterior branch of the coronary artery and its lumen was closed by means of an electrode. The wound was closed by atraumatic sutures. […] The rats were divided in two groups.
(§2) The animals were being observed for 24 hours (every one in a separate cage). […] The second group of 10 rats (5 of each group) were killed after 5 days and the third group of 10 animals (5 of each group)—after 7 days. In all the rats there was performed postmortem macroscopic examination of hearts, pleura and abdominal cavity organs. The tissues were taken from the infarct focus for microscopic examination. They were retained in formalin and stained conventionally with H-E. Blood for biochemical tests was taken by heart puncture of 3 ml volume.

The test system of data set [7] is patients suffering from diabetes of type I and type II.
Data set [8] has as its system psychotic and neurological patients (multiple sclerosis, anxiety, depression). The experiment in a line: Clinical trials in nervous system and psychic diseases. It is filed as in vivo, human.
Text: In the psychotic patients in combination with the conventional treatment and in the neurological patients as monotherapy.
The test system of data set [9] is model animals with experimentally-induced sepsis. Conditions: 0% for untreated animals.
For data set [10], the system named is rats with experimental myocardial infarction. Conditions: for ALT / AST / CPK / LDH1, 2: blood, 5 mg/kg per 24 hours intramuscularly, n = 5. The procedure: as §1, §2
In the biochemical trials there were estimated levels of creatinine kinase (CPK), lactate dehydrogenase (LDH 1-2), aspargine transaminase (AST) and alanine transaminase (ALT) before the infarct and on 1, 5 and 7 day after the infarct (Apparatus “Immunochemistry System”, Beckman Coulter, “DSL”, “Multiscan”, Labsystem; Glycomat DSS, Drew).

In data set [11] the test system is people after myocardial infarction. Conditions: 15 patients, versus control group.
Text: II-Na salt was applied also for treatment of people after myocardial infarction.
The conditions of data set [12]: background statement; cited from earlier work.
Setting [13] is: blood, alloxan diabetes rats treated with II-Na salt (Table 2).
Setting [14] is: blood, alloxan diabetes rats treated with II-Na salt (Table 3).

Like-named read-outs stand apart in the source and are kept apart here.

Turning to `CN(CCOc1ccc(CC2SC(=O)NC2=O)cc1)c1ccccn1` (centres unmarked) [Rosiglytazone, reference compound], in data set [1], the glycemia was determined as 55% and the “level of malonic dialdehyde (MDA), oxidation stress marker” value was determined as 54%. The “level of glutathione (GSH), oxidation stress marker” value in data set [1] (in comparison to the healthy rats) is recorded as 127%.
For `Nc1cccc2c(=O)[nH][nH]c(=O)c12.[Na]` [II-Na salt, 5-amino-2,3-dihydrophthalazine-1,4-dione sodium salt], in [1], the glycemia was found to be 62% and the “level of malonic dialdehyde (MDA), oxidation stress marker” value is recorded as 48.7%. The “level of glutathione (GSH), oxidation stress marker” value in data set [1] (result in words) is “does not change”. The “Number of capill. in 1 mm^3” value in [2] (Ischaemia-12 days) was determined as 152.3 ± 12.7 in 1 mm^3. In data set [2] (Ischaemia-29 days), the “Number of capill. in 1 mm^3” value was 236.4 ± 16.9 in 1 mm^3. The “effect on inflammatory state” value in [3] is “quicker tissues regeneration, inhibition of apoptosis and quicker symptoms subsidence or remission maintenance”. Further, the “starting formation of pseudocysts” value in [4] (2 patients, after treatment) is on record as “disappeared”. Moreover, the septic complications entry in data set [4] (25 patients, conventional therapy plus II-Na salt) is listed as “one patient”. Also, in [4] (after a month, of 25 patients), the “normalization of the laboratory tests results” value is given as “twenty two patients”. The “patients who could come back to nutrition per os” value in [4] (after three weeks of treatment, of 25 patients) is listed as “twenty patients”. In addition, in data set [4] (after two weeks of treatment), the insulin level result is listed as “raised nearly to normal” and the “reduction of the glucose level” value was “two times”. Moreover, in data set [4] (after two weeks of treatment, fifteen patients with reduced insulin level), the “reduction Hb1AC” value is given as “in six patients to the normal range”. This compound had an insulin administration in data set [4] (after two weeks of treatment, from up to 40 IU/day) of 10 IU/day. Moreover, in data set [4] (control group: above two weeks), the “pain disappeared in all patients (time)” value is given as “seven days”. Further, the “pain symptoms reduced in all the patients (time)” value in [4] (day of treatment) is listed as “second day”. Also, the “effects observed in the pancreas” value in [4] (research (rats, 5 mg per kg per 24 hours for a month) and clinical trials) was “inhibition of inflammatory and necrotic processes in the pancreas”. Besides, the IGF-1 in [5] (blood, alloxan diabetes rats treated with II-Na salt) worked out at 699.13 ± 81.4 ng/mL. In data set [5] (setting [13]), the IGF-2 is 37.9 ± 1.65 ng/mL and the Insulin was found to be 0.724 ± 0.08 mg/mL. For the same compound, in data set [5] (setting [14]), the IGF-2 is 37.9 ± 1.65 ng/mL and the Insulin turned out to be 7.24e-07 ± 8e-08 mg/mL. In data set [5] (blood, alloxan diabetes rats treated with II-Na salt, 5 mg per kg per 24 hours for a month, sodium salt), the Glucose was found to be 4.16 ± 0.56 mmol/L. The “Glycated hemoglobin (Hb A1C)” value in data set [5] (blood, alloxan diabetes rats treated with II-Na salt, sodium salt) amounted to 9.05 ± 0.58 %. Besides, in [5] (ratio, alloxan diabetes rats treated with II-Na salt), the IGF-1/IGF-2 is reported as 16.2 ± 2.4. Also, the “polymorphic-nucleated leucocytes in the demarcation zone” value in data set [6] (fifth day) was “not observed”. In [6] (fifth day, 4 rats without II-Na salt), the “postoperative wound healed by first intension (per primam)” value is “all 5 rats”. In addition, in data set [6] (first 24 hours after the infarct), the leucocytes migration entry was “not observed”. In data set [6] (fourteenth day, 5 mg/kg), the “fibrosis (Weinert's staining)” value is listed as “only few traits of fibrosis” and the polymorphic-nucleated leucocytes result is given as “not observed”. The “regeneration processes of damaged tissues” value in data set [6] (overall conclusion) is “positive influence on regeneration processes of damaged tissues”. In addition, the “capillary vessels in the infarct zone” value in [6] (seventh day) is listed as “normal of the sinusoidal type”. In data set [7] (after a week of treatment, from 7.5 mmol/l, 100 mg intramuscular injection), this compound came in with a glycemia level of 5.1 mmol/L. Besides, the insulin dose in [7] (after a week of treatment, reduced from 45 IU) is 15 IU per day. Moreover, the cholesterol level result in [7] (patients with diabetes of type II) is listed as “slight reduction”. Also, the “lymphocytic profile and cytokines” value in data set [8] (II-Na salt 100 mg per 24 hours intramuscularly for 30 days) was “normalization of the lymphocytic profile and cytokines”. Also, the disease symptoms result in [8] (human, in vivo) is given as “disease symptoms reduction”. In addition, the “preventive use in the period of remission” value in [8] (spring and autumn, 100 mg/d, 10 injections every day and 10 every second day) is “long-time remission”. Besides, the viability of rats in [9] is 80%. Also, in data set [10] (fifth day after infarct), the ALT was determined as 0.271 ± 0.059 µmol/L; the AST was 0.204 ± 0.03 µmol/L; the CPK worked out at 405.28 ± 27.84 µmol/L; the “LDH1, 2” value is 187.94 ± 34.37 µmol/L. In data set [10] (first day after infarct), the ALT was 0.178 ± 0.028 µmol/L; the AST came to 0.254 ± 0.034 µmol/L; the CPK amounted to 322.56 ± 43.79 µmol/L; the “LDH1, 2” value came to 248.84 ± 41.10 µmol/L. In data set [10] (seventh day after infarct), the ALT came to 0.24 ± 0.024 µmol/L; the AST stood at 0.225 ± 0.024 µmol/L; the CPK is 291.35 ± 18.9 µmol/L; the “LDH1, 2” value is 175.5 ± 25.89 µmol/L. The “normalization of the tested blood parameters” value in data set [10] (conclusion on Table 1) was “quicker normalization of all the tested parameters”. For the same compound, the “pain discomfort in the chest” value in data set [11] (100/200 mg per 24 hours intramuscular for seven days plus conventional therapy) is reported as “quicker reduction of pain discomfort in the chest”. Further, in data set [11], the “blood biochemical parameters (CPK, LDH, ALT, AST) and x-ray image” value is given as “quicker normalization of blood biochemical parameters”.
Regarding `Nc1cccc2c(=O)[nH][nH]c(=O)c12` [luminol, 5-Amino-2,3-dihydrophthalazine-1,4-dione], the solubility in water result in [12] is listed as “poorly soluble in water”.
For the compound `Nn1[nH]c(=O)c2ccccc2c1=O.[Na]` [compound III, 2-amino-1,2,3,4-tetrahydrophthalazine-1,4-dione sodium salt], in data set [12], the solubility in water result is recorded as “easily soluble in water”.
